In the test the target is T1, human CCR5 (Homo sapiens, UniProt P51681).
T1 construct: expressed in transfected cells; host or cells: CHO-dhfr(-)
Briefly: Inhibition test on the binding of RANTES to CCR5 (RANTES-induced transient increase of Ca ion) in CCR5/CHO cells. The following applies: human CCR5 stably over-expressing CHO cell; recombinant human RANTES 10 nM; intracellular Ca2+ transient increase (Fura-2AM). The class given is cell-based. The protocol:
(1) Isolation of Human CCR5 Gene Human placental cDNA was prepared using Marathon cDNA amplification kit (Clontech). PCR primers hCCR5Xbal-F1: Using the human placental cDNA as the template and using Ex Taq (Takara), PCR reaction (2 minutes at 95° C. {cube root}(30 seconds at 95° C., 45 seconds at 60° C., 1 minute at 72° C.)×35 times) was carried out. The thus amplified PCR product was subjected to a 1% agarose gel electrophoresis, purified using QIAquick Gel Extraction Kit (QUIAGEN) and then digested with a restriction enzyme XbaI. The digested fragments were ligated to an expression vector pEF-BOS-bsr using DNA Ligation Kit Ver. 2 (Takara) and transformed into Escherichia coli DH5α. By preparing the resulting plasmid pEF-BOS-bsr/hCCR5, its DNA sequence was verified. CHO-dhfr(−) was cultured using Ham's F-12 (containing fetal bovine serum (10%), penicillin (50 U/ml) and streptomycin ([…])). […] Transient increase in the intracellular Ca^2+ concentration induced by the human RANTES was measured using a Ca^2+ detector for 96 well use (Hamamatsu Photonics), and inhibition ratio (%) of the test compound was calculated by the following calculation formula. • Inhibition ratio=(Ec−Ea)/Ec×100 • Ec: measured value of Ca^2+ transient increase by RANTES • Ea: measured value of Ca^2+ transient increase by RANTES when a test compound was added.

Where a name gives a salt, the structure may show the parent alone.

Here are results for one compound from patent US20070155713A1, “Nitrogen-containing heterocyclic compounds and use thereof” (priority 2003, published 2007).

T1 sequence (P51681 whole entry): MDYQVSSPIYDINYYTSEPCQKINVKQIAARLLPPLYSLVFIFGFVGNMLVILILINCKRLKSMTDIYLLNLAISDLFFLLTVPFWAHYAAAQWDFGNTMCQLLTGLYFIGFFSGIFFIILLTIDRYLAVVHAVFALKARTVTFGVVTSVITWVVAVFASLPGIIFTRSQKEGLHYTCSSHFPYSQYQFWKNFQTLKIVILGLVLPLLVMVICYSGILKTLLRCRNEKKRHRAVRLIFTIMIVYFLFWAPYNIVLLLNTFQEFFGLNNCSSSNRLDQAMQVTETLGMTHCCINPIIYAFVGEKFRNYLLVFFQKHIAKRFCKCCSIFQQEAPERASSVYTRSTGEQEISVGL

Turning to `CCCCN1C(=O)[C@H](CC2CCCCC2)NC(=O)C12CCN(Cc1ccccc1)CC2C` (stereo partly drawn) [Example 1, (3S)-9-benzyl-1-butyl-3-(cyclohexylmethyl)-7-methyl-1,4,9-triazaspiro[5.5]undecane-2,5-dione hydrochloride], the IC50 was 760 nM.

For orientation: IC50 means the concentration that gives 50% inhibition.
